# Measured values taken from US20210251208A1, “COMPOSITION AND METHOD FOR ATTRACTING BED BUGS” (NATTARO LABS AB, priority 2016, published 2021).
# Several values for one entry are separate records, joined by “and”; a condition that tells them apart may be missing. Equal values may be shown once. Entries after “also recorded” stand apart in the source; their conditions may differ.
# What was measured:
# [1] = Dynamic headspace collection of volatiles from bait, GC-MS; assay type: physicochemical; settings: abefg 1:1:1:1:1 in gelatine 100 mg/l of each compound
# Experimental: After collection of the enfleurage samples head-space collections were made from each container using a special lid into which an adsorbent plug was inserted. The head-space of all containers in a replicate was collected simultaneously under dark conditions (except the first samples of replicate one) using battery operated membrane pumps. The air-flow through each container was adjusted to 35-40 ml/min. The head-space samples were collected for 2 hours for replicate one to three after the first week, but was extended to 4-6 hours for replicate 4 & 5 and for all replicates and collections after the second week. This was done to secure more material as the first samples were very weak.
# The samples were analyzed on a gas chromatograph (GC, Hewlett-Packard 6890 Series) equipped with a polar capillary column (Innowax; 30 m long, 0.25 mm i.d. and film thickness 0.25 μm Agilent Technologies USA) coupled to a mass spectrometer (Hewlett-Packard 5973 Mass Selective Detector). The injector temperature was 225° C. and the injection splitless. The GC temperature was programmed for 2 min at 40° C. followed by a gradual increase of 8°/min to 225° C., where the temperature was held steady for five min. Compounds were identified against the spectra and retention times of authentic reference compounds or in a few cases against the spectral libraries of ADAM and NIST2011.
# One of the baits used in the Arena test was placed in a container and the dynamic headspace was collected as described in example 1 and analysed using Gas chromatography-Mass spectroscopy (GC-MS).
# bed bugs [2] = test: Arena test of individual compounds vs. blend (40 cm arena, synergy); assay type: in vivo; settings: individual compound 100 mg/l in gelatine, five females and five males, N = 10
# Experimental: The following six tests were carried out: arena test of each of the five compounds a, b, e, f, and g individually and a test of the whole blend abefg. The procedure was the following.
# Gelatine solutions (lures) each containing a total of 100 mg/l of either (a) E-2-hexenal, (b) E-2-octenal, (e) E-2-hexenoic acid, (f) 2-octenoic acid and (g) 2-hexanone or the combination of the five compounds abefg were prepared.
# Five female and five male bedbugs were released into the centre of the arena in a dark room. The arena was lit with infrared light and after an initial 5 min acclimatization bed bugs were released in the middle of the arena and left for 30 minutes during which time their activity was video-recorded using an Infrared light camera coupled to Noldus Ethovision 15 program. At the end of the 30 minutes period, the bed bugs were manually collected and their positions recorded.
# After each replicate, the arena was cleaned with 70% ethanol and the position of the compound and controls were shifted. Ten replicates were made with each of the individual compound lures and the whole blend totalling 60 tests comprising 600 bed bugs, 300 females and 300 males. […] This value was subtracted from the number of bed bugs attracted to each lure correcting for the random part in the attraction in each replicate. The corrected values were used to calculate the average number of bed bugs attracted to each individual lure chemical and to the lure blend.
# bed bugs [3] = test: Arena test of baits (52 cm arena, ten bed bugs, 30 minutes); assay type: in vivo; settings: baits formulated using 3 wt % methylcellulose
# Experimental: In these tests bed bugs were placed in an arena and allowed to freely move around while the movement patterns were recorded, including in particular the time that bed bugs spent in proximity to each of the three different stations, each station comprising a bait (test compound) or control.
# The arena comprised a round (52 cm diameter) white painted metal tray with a 3.8 cm high rim. Evenly spaced half way between centrum and periphery three holes (3.4 cm diam) were bored. To prevent bed bug escape the rim was painted with Insect-a-Slip (#2871C Fluon, BioQuip Products, Inc. 2321 E, Chadwick St., Rancho Dominguez, Calif. 90220) resulting in a non-porous slippery, surface at the rim of the tray.
# Three plastic containers (34 mm diam×7 cm high), each with a net covered hole (18 mm diam) at the bottom to allow airflow, were attached below the holes at the underside of the arena using clay dough. At the start of an experiment the compounds/baits and controls were placed one in each container below the arena. […]
# Bed bugs, ten at a time, were introduced in separate vials into the middle of the arena and simultaneously video recording was started. […] At the end of the 30 minutes experimental period, the number of bed bugs in each container, and beneath or at the rim of the convex glass sheet above each container was scored. […] The final position was not recorded during early experiments. […]
# [4] = Stability / shelf-life of baits; assay type: physicochemical; settings: ascorbic acid included in gelatine baits
# From the text: The inclusion of ascorbic acid was thus subsequently discontinued.
AMOUNT in headspace of bait ([1]; Sample no. 15:209-213),AMOUNT in headspace of bait ([1]; Sample no. 15:215-219),AMOUNT in headspace of bait ([1]; Sample no. 15:245.1-5),AMOUNT in headspace of bait ([1]; Sample no. 16:02.1-5),AMOUNT in headspace of bait ([1]; Sample no. 16.37-40),Compound,"No. of bed bugs at test compound position at end of experiment (average, corrected for random attraction to controls) (bed bugs [2])",attractive effect in (initial) Arena tests (bed bugs [3]),effect of anti-oxidant on baits / shelf-life of the composition [4]
0 nano gram/hour,0.8 nano gram/hour,0 nano gram/hour,0 nano gram/hour,0.01 nano gram/hour,(E)-octenoic acid,–,–,–
–,–,–,–,–,"CCC/C=C/C=O [(a) E-2-hexenal, (E)-2-hexenal]",slightly deterrent effect and −0.50,–,–
0.2 nano gram/hour,3.1 nano gram/hour,0 nano gram/hour,1.4 nano gram/hour,0.08 nano gram/hour,"CCC/C=C/C(=O)O [(e) E-2-hexenoic acid, (E)-2-hexenoic acid]",0.55,–,–
–,–,–,–,–,"CCCCCC=CC(=O)O [(f) E-2-octenic acid, 2-Octenoic acid]",0.35,–,–
–,–,–,–,–,"CCCCC(=O)/C=C/C=O [4-oxo-(E)-2-octenal, 4-Oxo-(E)-2-octenal]",–,"no attractive effect, rather as having a repulsive effect",–
–,–,–,–,–,O=C1O[C@H]([C@@H](O)CO)C(O)=C1O [ascorbic acid],–,–,degraded the baits and resulted in lower efficiency of the baits; also recorded: decreased the shelf-life of the composition
914.5 nano gram/hour,477.6 nano gram/hour,438.5 nano gram/hour,405.2 nano gram/hour,349.9 nano gram/hour,(Z)- & (E)-2-octenal,–,–,–
–,–,–,–,–,CCC(=O)/C=C/C=O [4-Oxo-(E)-2-hexenal],–,"no attractive effect, rather as having a repulsive effect",–
–,–,–,–,–,"CCCCC/C=C/C=O [(b) E-2-octenal, (E)-2-octenal]",1.35,–,–

Compound,AMOUNT in headspace of bait ([1]; Sample no. 15:209-213),AMOUNT in headspace of bait ([1]; Sample no. 15:215-219),AMOUNT in headspace of bait ([1]; Sample no. 15:245.1-5),AMOUNT in headspace of bait ([1]; Sample no. 16:02.1-5),AMOUNT in headspace of bait ([1]; Sample no. 16.37-40),"No. of bed bugs at test compound position at end of experiment (average, corrected for random attraction to controls) (bed bugs [2])",attractive effect in (initial) Arena tests (bed bugs [3]),effect of anti-oxidant on baits / shelf-life of the composition [4]
"CCCCC(C)=O [(g) 2-hexanone, 2-Hexanone]",429.1 nano gram/hour,310.3 nano gram/hour,168.2 nano gram/hour,76.1 nano gram/hour,402.0 nano gram/hour,1.35,–,–
(Z)- & (E)-2-Hexenal,565.6 nano gram/hour,234.6 nano gram/hour,136.3 nano gram/hour,102.2 nano gram/hour,258.3 nano gram/hour,–,–,–
